We go through 20 molecules from US7713971B2, “1,2,4-triazine derivatives, preparation and use thereof in human therapy” (Pierre Fabre Medicament, priority 2005, dated 2010).

What is called EC50 is the midpoint of the concentration-response curve. The low end stands for an effect from little substance, the high end for a need for much substance.

In the assay the target is T1, human PPARα (Homo sapiens, UniProt Q07869).
T1 construct: expressed in transfected cells; host or cells: Cos-7 cells (ATCC, CRL-1651)
T1 sequence (Q07869 239-466 limits assumed): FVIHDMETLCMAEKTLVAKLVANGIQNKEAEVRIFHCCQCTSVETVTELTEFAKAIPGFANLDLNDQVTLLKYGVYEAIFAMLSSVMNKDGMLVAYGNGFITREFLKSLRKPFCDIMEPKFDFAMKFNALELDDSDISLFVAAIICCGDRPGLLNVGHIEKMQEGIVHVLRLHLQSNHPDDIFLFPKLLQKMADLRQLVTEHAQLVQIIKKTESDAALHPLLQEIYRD
As to the kind of experiment: Reporter gene transactivation, hPPAR-GAL4 alpha. It counts as cell-based. The conditions noted are these: transfected Cos-7 cells, Gal-4 luciferase reporter, 24 hours treatment. In general terms: Reporter assays use an easily measured gene product as a stand-in for the process of interest.
In turn, `CCCCn1c(=O)c(OCCc2ccccc2OC(C)(C)C(=O)OCC)nn(C)c1=O` [Example 1, Ethyl 2-{2-[2-(4-butyl-2-methyl-3,5-dioxo-2,3,4,5-tetrahydro-[1,2,4]triazin-6-yloxy)-ethyl]-phenoxy}-2-methyl-propionate] registered an EC50 of 3 to 10 µM.

Consider `CCOC(=O)C(C)(C)Oc1cccc(CCOc2nn(C)c(=O)n(CCCC(F)(F)F)c2=O)c1` [Example 3, Ethyl 2-methyl-2-(3-{2-[2-methyl-3,5-dioxo-4-(4,4,4-trifluoro-butyl)-2,3,4,5-tetrahydro-[1,2,4]triazin-6-yloxy]-ethyl}-phenoxy)-propionate], for which the EC50 was around 3 µM.

`CCOC(=O)C(C)(C)Oc1cccc(CCCOc2nn(CCCC(F)(F)F)c(=O)n(C)c2=O)c1` [Example 4, Ethyl 2-methyl-2-(3-{3-[4-methyl-3,5-dioxo-2-(4,4,4-trifluoro-butyl)-2,3,4,5-tetrahydro-[1,2,4]triazin-6-yloxy]-propyl}-phenoxy)-propionate] came in with an EC50 above 10 µM.

Consider `CCOC(=O)C(C)(C)Oc1cccc(CCCOc2nn(C)c(=O)n(CCCC(F)(F)F)c2=O)c1` [Example 6, Ethyl 2-methyl-2-(3-{3-[2-methyl-3,5-dioxo-4-(4,4,4-trifluoro-butyl)-2,3,4,5-tetrahydro-[1,2,4]triazin-6-yloxy]-propyl}-phenoxy)-propionate], for which the EC50 was around 0.3 µM.

Molecule `CCOC(=O)C(C)(C)Oc1ccc(COc2nn(C)c(=O)n(CCCC(F)(F)F)c2=O)cc1` [Example 21, Ethyl 2-methyl-2-{4-[2-methyl-3,5-dioxo-4-(4,4,4-trifluoro-butyl)-2,3,4,5-tetrahydro-[1,2,4]triazin-6-yloxymethyl]-phenoxy}-propionate] showed a concentration giving a half-maximal response (EC50) of 3 to 10 µM.

The molecule `CCCCCCCn1c(=O)c(OCc2ccc(OC(C)(C)C(=O)OCC)cc2)nn(CCCC(F)(F)F)c1=O` [Example 23, Ethyl 2-{4-[4-heptyl-3,5-dioxo-2-(4,4,4-trifluoro-butyl)-2,3,4,5-tetrahydro-[1,2,4]triazin-6-yloxymethyl]-phenoxy}-2-methyl-propionate] had an EC50 of 1 µM.

`CCOC(=O)C(C)(C)Oc1ccc(CCOc2nn(CCCC(F)(F)F)c(=O)n(C)c2=O)cc1` [Example 24, Ethyl 2-methyl-2-(4-{2-[4-methyl-3,5-dioxo-2-(4,4,4-trifluoro-butyl)-2,3,4,5-tetrahydro-[1,2,4]triazin-6-yloxy]-ethyl}-phenoxy)-propionate] showed an EC50 above 10 µM.

Consider `CCCCCCCn1c(=O)c(OCCc2ccc(OC(C)(C)C(=O)OCC)cc2)nn(C)c1=O` [Example 26, Ethyl 2-{4-[2-(4-heptyl-2-methyl-3,5-dioxo-2,3,4,5-tetrahydro-[1,2,4]triazin-6-yloxy)-ethyl]-phenoxy}-2-methyl-propionate], for which the EC50 is above 10 µM.

On to `CCOC(=O)C(C)(C)Oc1ccc(CCCCOc2nn(CCCC(F)(F)F)c(=O)n(C)c2=O)cc1` [Example 28, Ethyl 2-methyl-2-(4-{4-[4-methyl-3,5-dioxo-2-(4,4,4-trifluoro-butyl)-2,3,4,5-tetrahydro-[1,2,4]triazin-6-yloxy]-butyl}-phenoxy)-propionate], for which the half-maximal effective concentration (EC50) was around 10 µM.

Take `CCCCCCCn1nc(OCCCc2cccc(SC(C)(C)C(=O)OCC)c2)c(=O)n(C)c1=O` [Example 32, Ethyl 2-{3-[3-(2-heptyl-4-methyl-3,5-dioxo-2,3,4,5-tetrahydro-[1,2,4]triazin-6-yloxy)-propyl]-phenylsulfanyl}-2-methyl-propionate]: the EC50 was in the range of 1 to 3 µM.

The molecule `CCOC(=O)C(C)(C)Oc1ccc(OCCNc2nn(CCCC3CCCCC3)c(=O)n(CCCC3CCCCC3)c2=O)cc1` [Example 43, Ethyl 2-(4-{2-[2,4-bis-(3-cyclohexylpropyl)-3,5-dioxo-2,3,4,5-tetrahydro-[1,2,4]triazin-6-ylamino]-ethoxy}-phenoxy)-2-methyl-propionate] yielded an EC50 of around 3 µM.

On to `CCCCCCCN(CCCCOc1cccc(SC(C)(C)C(=O)OCC)c1)c1nn(C)c(=O)n(C)c1=O` [Example 54, Ethyl 2-(3-{4-[(2,4-Dimethyl-3,5-dioxo-2,3,4,5-tetrahydro-[1,2,4]triazin-6-yl)-heptyl-amino]-butoxy}-phenylsulfanyl)-2-methyl-propionate], for which the EC50 was above 10 µM.

Molecule `CCOC(=O)C(C)(C)Oc1ccccc1CCNc1nn(CCCC(F)(F)F)c(=O)n(CCCC(F)(F)F)c1=O` [Example 55, Ethyl 2-(2-{2-[3,5-Dioxo-2,4-bis-(4,4,4-trifluoro-butyl)-2,3,4,5-tetrahydro-[1,2,4]triazin-6-ylamino]-ethyl}-phenoxy)-2-methyl-propionate] displayed an EC50 above 10 µM.

With `CCOC(=O)C(C)(C)Oc1cccc(CCNc2nn(C)c(=O)n(CCCC(F)(F)F)c2=O)c1` [Example 58, Ethyl 2-methyl-2-(3-{2-[2-methyl-3,5-dioxo-4-(4,4,4-trifluoro-butyl)-2,3,4,5-tetrahydro-[1,2,4]triazin-6-ylamino]-ethyl}-phenoxy)-propionate], the EC50 is above 10 µM.

In turn, `CCCCCCCn1c(=O)c(NCCc2cccc(OC(C)(C)C(=O)OCC)c2)nn(CCCC(F)(F)F)c1=O` [Example 60, Ethyl 2-(3-{2-[4-heptyl-3,5-dioxo-2-(4,4,4-trifluoro-butyl)-2,3,4,5-tetrahydro-[1,2,4]triazin-6-ylamino]-ethyl}-phenoxy)-2-methyl-propionate] yielded an EC50 above 10 µM.

Molecule `CCCCCCCn1c(=O)c(NCCc2cccc(SC(C)(C)C(=O)OCC)c2)nn(C)c1=O` [Example 61, Ethyl 2-{3-[2-(4-heptyl-2-methyl-3,5-dioxo-2,3,4,5-tetrahydro-[1,2,4]triazin-6-ylamino)-ethyl]-phenylsulfanyl}-2-methyl-propionate] registered an EC50 of around 3 µM.

In the case of `CCOC(=O)C(C)(C)Oc1cccc(CCCNc2nn(CCCC(F)(F)F)c(=O)n(C)c2=O)c1` [Example 62, Ethyl 2-methyl-2-(3-{3-[4-methyl-3,5-dioxo-2-(4,4,4-trifluoro-butyl)-2,3,4,5-tetrahydro-[1,2,4]triazin-6-ylamino]-propyl}-phenoxy)-propionate], the EC50 was above 10 µM.

`CCOC(=O)C(C)(C)Oc1cccc(CCCNc2nn(CCCC(F)(F)F)c(=O)n(Cc3ccccc3)c2=O)c1` [Example 71, Ethyl 2-(3-{3-[4-benzyl-3,5-dioxo-2-(4,4,4-trifluoro-butyl)-2,3,4,5-tetrahydro-[1,2,4]triazin-6-ylamino]-propyl}-phenoxy)-2-methyl-propionate] came in with an EC50 of around 1 µM.

Molecule `Cn1nc(NCCCCc2cccc(OC(C)(C)C(=O)OC(C)(C)C)c2)c(=O)n(CCCC(F)(F)F)c1=O` [Example 78, Tert-butyl 2-methyl-2-(3-{4-[2-methyl-3,5-dioxo-4-(4,4,4-trifluoro-butyl)-2,3,4,5-tetrahydro-[1,2,4]triazin-6-ylamino]-butyl}-phenoxy)-propionate] yielded an EC50 above 10 µM.

As to `CCCCCCCn1nc(NCCCCc2cccc(OC(C)(C)C(=O)OC(C)(C)C)c2)c(=O)n(CCCC(F)(F)F)c1=O` [Example 83, Tert-butyl 2-(3-{4-[2-heptyl-3,5-dioxo-4-(4,4,4-trifluoro-butyl)-2,3,4,5-tetrahydro-[1,2,4]triazin-6-ylamino]-butyl}-phenoxy)-2-methyl-propionate], the EC50 is above 10 µM.
